Data on 28 molecules can be found in ChEMBL document CHEMBL1821714, “Discovery, synthesis and SAR of azinyl- and azolylbenzamides antagonists of the P2X₇ receptor” (Bioorg Med Chem Lett, 2011).

The target in series [1] is T1, P2X purinoceptor 7 (Homo sapiens, UniProt Q99572).
T1 sequence (Q99572 whole entry): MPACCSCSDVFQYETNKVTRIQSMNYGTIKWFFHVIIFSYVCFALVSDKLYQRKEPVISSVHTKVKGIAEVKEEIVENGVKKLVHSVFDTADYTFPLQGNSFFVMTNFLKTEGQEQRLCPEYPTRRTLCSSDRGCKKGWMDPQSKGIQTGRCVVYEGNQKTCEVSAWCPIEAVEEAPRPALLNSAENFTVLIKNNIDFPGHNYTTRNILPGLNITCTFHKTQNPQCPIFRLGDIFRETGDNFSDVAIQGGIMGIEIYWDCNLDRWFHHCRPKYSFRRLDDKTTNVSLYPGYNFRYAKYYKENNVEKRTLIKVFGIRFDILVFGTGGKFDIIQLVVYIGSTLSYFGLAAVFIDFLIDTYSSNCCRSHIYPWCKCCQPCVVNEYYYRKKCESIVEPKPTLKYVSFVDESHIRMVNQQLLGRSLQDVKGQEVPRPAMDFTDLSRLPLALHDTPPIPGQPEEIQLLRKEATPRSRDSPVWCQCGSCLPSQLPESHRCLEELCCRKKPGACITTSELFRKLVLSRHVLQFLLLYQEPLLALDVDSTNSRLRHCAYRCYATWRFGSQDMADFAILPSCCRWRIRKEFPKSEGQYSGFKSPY
The experiment in a line: Antagonist activity at P2X7R expressed in LPS-activated human monocytes assessed as inhibition of ATP-induced IL1-beta release in presence of low serum concentration. Type of series: functional, cell-based.

Series [2] addresses T2, P2X purinoceptor 7 (Homo sapiens) (UniProt Q99572).
T2 sequence (whole entry): T1 sequence (Q99572 whole entry)
The experiment in a line: Antagonist activity at P2X7R expressed in LPS-activated human monocytes assessed as inhibition of ATP-induced IL1-beta release at 1 uM in presence of low serum concentration. Type of series: functional, cell-based.

The nature of series [3]: Half life in human liver microsomes.
The target in series [4] is T1, P2X purinoceptor 7. The experiment in a line: Antagonist activity at P2X7R expressed in LPS-stimulated human whole blood assessed as inhibition of ATP-induced IL1-beta release. The class given is functional, tissue-based.
Series [5] in a line: Lipophilicity, log P of the compound. Type of series: physicochemical. The note with it: octanol/water.
The subject of series [6] is MDCK. In words: Permeability from apical to basolateral side of dog MDCK cells expressing MDR1. The class given is ADME, cell-based, Canis lupus familiaris.
Series [7] in a line: Oral bioavailability in rat. The note with it: in vivo.
The target of series [8] is T1, P2X purinoceptor 7. The experiment in a line: Antagonist activity at P2X7R expressed in HEK293 cells assessed as inhibition of ATP-induced YO-PRO-1 uptake. Type of series: functional, cell-based.
Series [9] in a line: Half life in iv dosed rat. The note with it: in vivo.
The test system of series [10] is MDCK. The experiment in a line: Ratio of permeability from basolateral to apical over apical to basolateral side in dog MDCK cells expressing MDR1. Type of series: ADME, cell-based, Canis lupus familiaris.
A short description of series [11]: Distribution coefficient, log D of the compound. The class given is physicochemical. Particulars: octanol/water.
The subject of series [12] is MDCK. In words: Permeability from basolateral to apical side of dog MDCK cells expressing MDR1. Type of series: ADME, cell-based, Canis lupus familiaris.
The nature of series [13]: Permeability from apical to basolateral side of human Caco2 cells. The note with it: Caco-2, read-out: permeability. Type of series: ADME, cell-based. Background: Passage across Caco-2 layers is used to estimate intestinal permeability.
Series [14] is described as follows: Volume of distribution at steady state in iv dosed rat. Particulars: in vivo.

As a reminder, the IC50 is the concentration needed to halve the response being measured. Consider `O=C(NCCc1ccccc1Cl)c1cc(-c2ccncc2)ccc1Cl`, for which the IC50 in [1] was 5.2 µM.
One may read the inhibition as the share of the control response that was lost under treatment. Take `Cc1cccnc1-c1ccc(Cl)c(C(=O)NCCc2ccccc2Cl)c1`: the inhibition in series [2] came to 0%.
One may read the half-life as the time needed for the level to fall by half in the phase considered. Low values mean fast loss, high ones slow loss. Regarding `Cn1ccc(-c2ccc(Cl)c(C(=O)NCC3(O)CCCCCC3)c2)n1`, the IC50 was 0.238 µM in [1] and 0.44 µM in series [4]. In series [3] (liver microsomes), the half-life amounted to 0.0617 h.
Take `Cc1ccc(-c2ccc(Cl)c(C(=O)NCCc3ccccc3Cl)c2)nn1`: the IC50 in series [1] came out at 0.25 µM.
The term logP denotes the decadic logarithm of the partition coefficient of the neutral form, usually between octanol and water. Low values mean lower lipophilicity, high ones higher lipophilicity. A word on the bioavailability: it is dose-corrected exposure relative to a reference, in per cent. As usually defined, the logD is the decadic logarithm of the distribution of all forms, ionised or not, between an organic phase and buffer at a given pH. A high value points to a more lipophilic compound. By Vd is commonly meant the apparent volume that relates the amount in the body to the concentration in plasma or blood. The low end stands for confinement near the circulation, the high end for extensive tissue distribution. With `Cc1cc(-c2ccc(Cl)c(C(=O)NCC3(O)CCCCCC3)c2)nn1C[C@@H](O)CN.Cl`, in [5], the logP came out at 2.6. Besides, the figures for the permeability in [6] and in [12] were 0.26 ×10⁻⁶ cm/s and 2.39 ×10⁻⁶ cm/s, respectively. Moreover, the IC50 in series [1] amounted to 0.002 µM; in series [8], 0.0005 µM; in series [4], 0.003 µM. The bioavailability in series [7] was found to be 9%. For the same molecule, the half-life was > 2 h in series [3] (liver microsomes) and 8.36 h in series [9]. Moreover, in series [10], the Ratio is 11.5. For the same molecule, in [11], the logD came to 1.6. Also, the Papp A→B in series [13] was 2.98 ×10⁻⁶ cm/s. The Vd in series [14] amounted to 11.7 L/kg.
For `N#Cc1ccc(-c2ccc(Cl)c(C(=O)NCCc3ccccc3Cl)c2)nc1`, in series [2], the inhibition came to 0%.
`Cc1cc(-c2ccc(Cl)c(C(=O)NCC3(O)CCCCCC3)c2)nn1C[C@H](O)CN.Cl` gave a logP in series [5] of 2.6. The permeability was 0.26 ×10⁻⁶ cm/s in series [6] and 2.2 ×10⁻⁶ cm/s in [12]. Moreover, the figures for the IC50 in series [1], in series [8] and in [4] were 0.007 µM, 0.003 µM and 0.01 µM, respectively. In [3] (liver microsomes), the half-life was > 2 h. Moreover, the Ratio in series [10] stood at 10.5. In addition, in series [11], the logD came to 1.6. In addition, the Papp A→B in series [13] was 10.5 ×10⁻⁶ cm/s.
For `O=C(NCCc1ccccc1Cl)c1cc(-c2ccccn2)ccc1Cl`, the IC50 in series [1] worked out at 1.6 µM.
Regarding `O=C(NCCc1ccccc1Cl)c1cc(-c2ccc(C(F)(F)F)cn2)ccc1Cl`, the IC50 in series [1] came out at 4.6 µM.
Turning to `COc1ccc(-c2ccc(Cl)c(C(=O)NCCc3ccccc3Cl)c2)nn1`, the IC50 in series [1] is 0.49 µM.
For `COc1ccc(-c2ccc(Cl)c(C(=O)NCC3(O)CCCCCC3)c2)nn1`, the IC50 in [8] is 0.028 µM; in [4], 0.51 µM. The molecule further yielded a half-life in series [3] (liver microsomes) of 1.28 h.
For the molecule `Cc1ccnc(-c2ccc(Cl)c(C(=O)NCCc3ccccc3Cl)c2)c1`, the inhibition in series [2] was 0%.
Turning to `Cc1ccc(-c2ccc(Cl)c(C(=O)NCCc3ccccc3Cl)c2)nc1`, in series [1], the IC50 was found to be 0.11 µM.
Consider `NC(=O)c1ccc(-c2ccc(Cl)c(C(=O)NCCc3ccccc3Cl)c2)nc1`, for which the IC50 in [1] amounted to 0.72 µM.
Consider `CC(=O)c1ccc(-c2ccc(Cl)c(C(=O)NCCc3ccccc3Cl)c2)nc1`, for which the inhibition in [2] is 0%.
`O=C(NCC1(O)CCCCCC1)c1cc(-c2c[nH]cn2)ccc1Cl`: the IC50 in series [1] was determined as 0.51 µM. The molecule also registered a half-life in [3] (liver microsomes) of 1.42 h.
Take `O=C(NCCc1ccccc1Cl)c1cc(-c2cccnc2)ccc1Cl`: in [1], the IC50 worked out at 4.8 µM.
Consider `O=C(NCC1(O)CCCCCC1)c1cc(-c2ccc(=O)[nH]n2)ccc1Cl`, for which the IC50 in [8] came to 0.18 µM.
`CC(O)c1ccc(-c2ccc(Cl)c(C(=O)NCCc3ccccc3Cl)c2)nc1` (stereo not drawn): the IC50 in series [1] worked out at 0.668 µM.
Turning to `O=C(NCC1(O)CCCCCC1)c1cc(-c2cc[nH]n2)ccc1Cl`, the results for the IC50 in series [8] and in series [4] were 0.012 µM and 0.61 µM, respectively. The half-life in series [3] (liver microsomes) stood at 0.2 h.
As for `O=C(NCCc1ccccc1Cl)c1cc(-c2n[nH]c(=O)[nH]c2=O)ccc1Cl`, in series [1], the IC50 was determined as 1.05 µM.
As to `Cc1nc(-c2ccc(Cl)c(C(=O)NCC3(O)CCCCCC3)c2)cs1`, the IC50 in [8] amounted to 0.006 µM.
Turning to `CCCCC(CC)CNC(=O)c1cc(-n2ncc(=O)[nH]c2=O)ccc1Cl` (stereo not drawn), the IC50 in [1] is 0.82 µM.
`O=C(NCC1(O)CCCCCC1)c1cc(-c2cnoc2)ccc1Cl`: the IC50 in series [1] came to 0.24 µM. This molecule also displayed a half-life in series [3] (microsomes) of 0.372 h.
In the case of `Cn1nccc1-c1ccc(Cl)c(C(=O)NCC2(O)CCCCCC2)c1`, the 50% inhibitory concentration (IC50) in series [1] was > 1 µM; in series [8], 0.266 µM.
Turning to `COC[C@H](O)Cn1c(=O)cnn(-c2ccc(Cl)c(C(=O)NCC3(O)CCCCCC3)c2)c1=O` [CE-224535], the concentration for half-maximal inhibition (IC50) in series [1] was determined as 0.0013 µM.
As to `Cc1cccc(-c2ccc(Cl)c(C(=O)NCCc3ccccc3Cl)c2)n1`, in [2], the inhibition stood at 0%.
As to `O=C(NCCc1ccccc1Cl)c1cc(-c2ccc(Cl)cn2)ccc1Cl`, the IC50 in series [1] was found to be 0.46 µM.
